According to US20090298897A1, “Treatment of Inflammatory Disorders With Triazole Compounds” (priority 2006, published 2009):
Where “and” joins values, the source holds several entries; their conditions need not be identical. Equal entries are not always repeated. Entries after “also recorded” stand apart in the source; their conditions may differ.

Experiments:
IL-1α = experiment: Expression of IL-1α, rambazole compared to retinoic acid (FIG. 2); format: in vivo, human
Text: Also unexpectedly, rambazole-treated lesions (such as, for example, psoriatic lesions) continue to improve and show reduced inflammatory patterns for at least 3 months after discontinuation of treatment. Further, in contrast with retinoids such as isotretinoin, rambazole-treated inflammatory lesions responded rapidly within the first 4 weeks of treatment. This finding supports an antiinflammatory action for rambazole in addition to the typical effects on proliferation and differentiation.

[1] = test system: SLS-induced irritant dermatitis; experiment: Irritant dermatitis induced by sodium lauryl sulfate (SLS); format: in vivo, human; details: 0.35% gel, 4 days pre-treatment and 5 days during 2% SLS; healthy volunteers
Protocol: Rambazole (0.35%) gel was applied as a pre-treatment during four days. Inflammation was induced by applying 2% SLS during 2 hours in rings on the arm of twelve healthy volunteers once a day for five days. Rambazole (0.35%) gel was applied during the five days of induced inflammation. Skin reactions of non-treated and rambazole gel-treated skin sites were assessed 24 hours after each application with SLS and 72 hours after the last SLS application (visual scoring of redness, chromametry, TEWL).

[2] = test system: mild to moderate acne vulgaris; experiment: Treatment of acne vulgaris with topical rambazole; format: in vivo, human; details: after 12 weeks; daily topical 0.35% rambazole
[3] = test system: moderate to severe facial acne vulgaris; experiment: Treatment of acne vulgaris with oral rambazole (lesion counts); format: in vivo, human; details: for Table 3 (untitled, lesion count), Max. / Table 3 (untitled, lesion count), Mean / Table 3 (untitled, lesion count), Median / Table 3 (untitled, lesion count), Min. / Table 6 (untitled, summary of Table 5 lesion count), Max. / Table 6 (untitled, summary of Table 5 lesion count), Mean / Table 6 (untitled, summary of Table 5 lesion count), Median / Table 6 (untitled, summary of Table 5 lesion count), Min. / Table 4 (untitled, change of Table 3 count versus Visit 2), Max. / Table 4 (untitled, change of Table 3 count versus Visit 2), Mean / Table 4 (untitled, change of Table 3 count versus Visit 2), Median / Table 4 (untitled, change of Table 3 count versus Visit 2), Min. / Table 7 (untitled, change of Table 6 count versus Visit 2), Max. / Table 7 (untitled, change of Table 6 count versus Visit 2), Mean / Table 7 (untitled, change of Table 6 count versus Visit 2), Median / Table 7 (untitled, change of Table 6 count versus Visit 2), Min.: N 16; for Table 5 (untitled, lesion count per subject): individual subjects; for No. of Responders (≧50% reduction in inflammatory lesions): of 16 subjects
Protocol: Sixteen patients with moderate to severe facial acne vulgaris received a daily oral dose of 1 mg of rambazole for 12 weeks. […] The average lesion reduction was 79%. See Tables 3 through 7 for additional individual data. See FIGS. 5 and 6, respectively, for a comparison of the response to treatment of inflammatory lesions versus non-inflammatory lesions.

[4] = test system: moderate to severe plaque type psoriasis; experiment: Treatment of psoriasis with oral rambazole (PASI score); format: in vivo, human; details: for % PASI Score from Baseline: individual subjects
Protocol: Seventeen patients with a Psoriasis Area and Severity Index (PASI) score of at least 5 (moderate to severe plaque type psoriasis) received a daily oral dose of 1 mg of rambazole. The evolution of the PASI score was monitored after 1, 2, 4 and 8 weeks of treatment and at the end of a 2-week follow-up period. […] Biopsies from lesions were taken and surface markers were analyzed.

IP-10 = IP-10 expression and secretion in IFNγ-activated normal human epidermal keratinocytes (ELISA); format: cell-based; details: 50 U/mL IFNγ; rambazole 10^-5 M to 3×10^-8 M for 18 hours
Protocol: Fourth passage normal human epidermal keratinocytes were plated at 2,000 cells/well in low Ca^2+ KSFM. After 3 days incubation to 60% confluence, the medium was removed and cells were stimulated with 50 U/mL IFNγ and incubated with rambazole ranging from 10^-5 M to 3×10^-8 M for 18 hours. Interferon-inducible protein (IP-10) expression in the culture medium was determined using the IP-10 sandwich-type ELISA and all data were corrected for cell count. Values are represented as mean percentages±SD (n=4) versus drug solvent control.

IL-12p40 = experiment: IL-12 secretion by activated monocytes (IL-12p40 ELISA); format: cell-based, human; details: monocytes activated with Zymosan or 19 kDa lipoprotein for 18 h
Protocol: Peripheral blood mononuclear cells (PBMC) were isolated from healthy donors by density gradient centrifugation on Ficoll-Hypaque Plus and monocytes were selected by adherence. After overnight culture in RPMI 1640 supplemented with […] FBS, monocytes were activated with Zymosan or 19 kDa lipoprotein for 18 h, and IL-12p40 was measured in the supernatant by ELISA.

skin of volunteers, UVB = experiment: Effects of topical 0.35% rambazole on UVB-induced inflammation (chromametry); format: in vivo, human; details: topical 0.35% for 9 days, then 5 days UVB
Text: In an investigator-blinded, placebo-controlled study, topical 0.35% rambazole was applied to the skin of volunteers for 9 days, followed by 5 days of induction of inflammation with UVB. Adapalene was used in the study as a standard anti-inflammatory agent.

Interleukin-1 (IL-1) = experiment: Expression of IL-1 in the skin of healthy volunteers (real-time PCR); format: in vivo, human
Protocol: In this randomized, double-blind, left-right, placebo-controlled trial, the expression of Interleukin-1 (IL-1) in the skin of 15 healthy subjects was evaluated after a once daily application of rambazole gel at two different concentrations (0.35% or 0.07%) on intact skin for 9 days. The IL-1 biomarker was analyzed with real-time PCR.

## CCC(CC)C(c1ccc(Nc2nc3ccccc3s2)cc1)n1cncn1 (stereo not drawn) [rambazole]
IL-1α
  expression of IL-1: decrease the expression of IL-1
[1]
  inflammatory response induced by application of SLS (visual scoring of redness, chromametry, TEWL): inhibits the inflammatory response
[2]
  reduction in global assessment score: approximately 40%
[3]; 1 mg oral daily for 12 weeks
  serious adverse effects: No serious adverse effects were reported
[3]; Visit No. 2
  Table 3 (untitled, lesion count), Max.: 170
  Table 3 (untitled, lesion count), Mean: 56.2
  Table 3 (untitled, lesion count), Median: 48.0
  Table 3 (untitled, lesion count), Min.: 15
  Table 6 (untitled, summary of Table 5 lesion count), Max.: 199
  Table 6 (untitled, summary of Table 5 lesion count), Mean: 81.3
  Table 6 (untitled, summary of Table 5 lesion count), Median: 87.0
  Table 6 (untitled, summary of Table 5 lesion count), Min.: 22
  Table 5 (untitled, lesion count per subject): 22 and 46 and 63 and 25 and 23 and 93 (2×) and 72 and 49 and 89 and 110 and 199 and 121 and 95 and 115 and 85
[3]; Visit No. 4
  Table 3 (untitled, lesion count), Max.: 77
  Table 3 (untitled, lesion count), Mean: 34.4
  Table 3 (untitled, lesion count), Median: 34.5
  Table 3 (untitled, lesion count), Min.: 3
  Table 4 (untitled, change of Table 3 count versus Visit 2), Max.: 15
  Table 4 (untitled, change of Table 3 count versus Visit 2), Mean: −21.8
  Table 4 (untitled, change of Table 3 count versus Visit 2), Median: −10.0
  Table 4 (untitled, change of Table 3 count versus Visit 2), Min.: −159
  Table 6 (untitled, summary of Table 5 lesion count), Max.: 122
  Table 6 (untitled, summary of Table 5 lesion count), Mean: 51.4
  Table 6 (untitled, summary of Table 5 lesion count), Median: 49.5
  Table 6 (untitled, summary of Table 5 lesion count), Min.: 3
  Table 7 (untitled, change of Table 6 count versus Visit 2), Max.: 10
  Table 7 (untitled, change of Table 6 count versus Visit 2), Mean: −29.9
  Table 7 (untitled, change of Table 6 count versus Visit 2), Median: −17.5
  Table 7 (untitled, change of Table 6 count versus Visit 2), Min.: −159
  Table 5 (untitled, lesion count per subject): 11 and 3 and 12 and 30 and 21 and 71 and 58 and 59 and 80 and 45 and 89 and 40 and 48 and 82 and 122 and 51
[3]; Visit No. 5
  Table 3 (untitled, lesion count), Max.: 94
  Table 3 (untitled, lesion count), Mean: 26.4
  Table 3 (untitled, lesion count), Median: 27.0
  Table 3 (untitled, lesion count), Min.: 1
  Table 4 (untitled, change of Table 3 count versus Visit 2), Max.: 19
  Table 4 (untitled, change of Table 3 count versus Visit 2), Mean: −29.8
  Table 4 (untitled, change of Table 3 count versus Visit 2), Median: −22.0
  Table 4 (untitled, change of Table 3 count versus Visit 2), Min.: −142
  Table 6 (untitled, summary of Table 5 lesion count), Max.: 146
  Table 6 (untitled, summary of Table 5 lesion count), Mean: 39.5
  Table 6 (untitled, summary of Table 5 lesion count), Median: 40.5
  Table 6 (untitled, summary of Table 5 lesion count), Min.: 1
  Table 7 (untitled, change of Table 6 count versus Visit 2), Max.: 31
  Table 7 (untitled, change of Table 6 count versus Visit 2), Mean: −41.8
  Table 7 (untitled, change of Table 6 count versus Visit 2), Median: −45.0
  Table 7 (untitled, change of Table 6 count versus Visit 2), Min.: −140
  Table 5 (untitled, lesion count per subject): 9 and 1 and 4 (2×) and 2 (2×) and 48 and 64 and 42 and 39 and 33 and 80 and 59 and 55 and 44 and 146
[3]; Visit No. 6
  Table 3 (untitled, lesion count), Max.: 37
  Table 3 (untitled, lesion count), Mean: 12.8
  Table 3 (untitled, lesion count), Median: 13.5
  Table 3 (untitled, lesion count), Min.: 0
  Table 4 (untitled, change of Table 3 count versus Visit 2), Max.: −12
  Table 4 (untitled, change of Table 3 count versus Visit 2), Mean: −43.4
  Table 4 (untitled, change of Table 3 count versus Visit 2), Median: −34.0
  Table 4 (untitled, change of Table 3 count versus Visit 2), Min.: −165
  Table 6 (untitled, summary of Table 5 lesion count), Max.: 65
  Table 6 (untitled, summary of Table 5 lesion count), Mean: 22.6
  Table 6 (untitled, summary of Table 5 lesion count), Median: 26.0
  Table 6 (untitled, summary of Table 5 lesion count), Min.: 0
  Table 7 (untitled, change of Table 6 count versus Visit 2), Max.: −22
  Table 7 (untitled, change of Table 6 count versus Visit 2), Mean: −58.6
  Table 7 (untitled, change of Table 6 count versus Visit 2), Median: −58.5
  Table 7 (untitled, change of Table 6 count versus Visit 2), Min.: −165
  Table 5 (untitled, lesion count per subject): 0 (2×) and 1 (2×) and 3 (2×) and 25 and 37 and 22 and 34 (2×) and 29 and 41 and 40 and 27 and 65
[3]; Visit No. 7
  Table 3 (untitled, lesion count), Max.: 56
  Table 3 (untitled, lesion count), Mean: 13.3
  Table 3 (untitled, lesion count), Median: 8.0
  Table 3 (untitled, lesion count), Min.: 0
  Table 4 (untitled, change of Table 3 count versus Visit 2), Max.: −14
  Table 4 (untitled, change of Table 3 count versus Visit 2), Mean: −42.9
  Table 4 (untitled, change of Table 3 count versus Visit 2), Median: −35.0
  Table 4 (untitled, change of Table 3 count versus Visit 2), Min.: −159
  Table 6 (untitled, summary of Table 5 lesion count), Max.: 71
  Table 6 (untitled, summary of Table 5 lesion count), Mean: 21.3
  Table 6 (untitled, summary of Table 5 lesion count), Median: 13.5
  Table 6 (untitled, summary of Table 5 lesion count), Min.: 0
  Table 7 (untitled, change of Table 6 count versus Visit 2), Max.: −22
  Table 7 (untitled, change of Table 6 count versus Visit 2), Mean: −59.9
  Table 7 (untitled, change of Table 6 count versus Visit 2), Median: −52.5
  Table 7 (untitled, change of Table 6 count versus Visit 2), Min.: −178
  Table 5 (untitled, lesion count per subject): 0 (2×) and 4 and 2 and 1 and 5 and 38 and 25 and 39 and 6 and 35 and 21 and 71 and 31 and 60 and 3
[3]; Week 4, 1 mg oral daily
  Percent Responders (≧50% reduction in inflammatory lesions): 31%
[3]; Week 4
  No. of Responders (≧50% reduction in inflammatory lesions): 5
[3]; Week 8, 1 mg oral daily
  Percent Responders (≧50% reduction in inflammatory lesions): 56%
[3]; Week 8
  No. of Responders (≧50% reduction in inflammatory lesions): 9
[3]; Week 12, 1 mg oral daily
  Percent Responders (≧50% reduction in inflammatory lesions): 100%
[3]; Week 12
  No. of Responders (≧50% reduction in inflammatory lesions): 16
[3]; Week 16 (follow-up)
  Percent Responders (≧50% reduction in inflammatory lesions): 88%
  No. of Responders (≧50% reduction in inflammatory lesions): 14
[3]; after 12 weeks, 1 mg oral daily
  average lesion reduction: 79%
[3]; rambazole-treated inflammatory lesions, in contrast with retinoids such as isotretinoin
  time within which inflammatory lesions responded: ≤ 4 weeks
[4]; daily oral dose 1 mg, psoriasis patients
  side effects / tolerability: mild to moderate; also recorded: well tolerated
[4]; rambazole-treated lesions such as psoriatic lesions
  time lesions continue to improve and show reduced inflammatory patterns after discontinuation of treatment: at least 3 months
[4]; subjects that completed 8 weeks of treatment, daily oral dose 1 mg
  mean reduction in PASI score: 51.4%
[4]; week 1, 1 mg oral daily
  % PASI Score from Baseline: 100% (4×) and 93% and 81% and 88% and 80% and 92% (2×) and 113% and 87% and 97% and 89% (2×) and 79% and 108%
[4]; week 2, 1 mg oral daily
  % PASI Score from Baseline: 99% and 86% (2×) and 95% and 79% and 108% and 75% and 92% (2×) and 150% and 96% and 88% and 89% and 77% and 98% and 83% and 117%
[4]; week 4, 1 mg oral daily
  % PASI Score from Baseline: 99% and 88% and 81% and 57% and 84% (2×) and 78% and 104% and 85% and 97% and 70% and 69% and 80% and 60% and 107% and 206%
[4]; week 8, 1 mg oral daily
  % PASI Score from Baseline: 96% and 55% and 109% and 47% and 67% and 73% and 62% and 79% and 43% and 35% and 34% and 41% and 86% and 97%
[4]; week 10 (end of 2-week follow-up)
  % PASI Score from Baseline: 81% and 27% and 105% and 51% and 36% and 49% and 45% and 37% and 73% and 52% and 4% and 34% and 28% and 70% and 87%
IP-10
  IP-10 expression and secretion: dose-dependently down regulated
IL-12p40
  IL-12 secretion (IL-12p40 in supernatant): dose-dependently suppressed; also recorded: suppression of IL-12
Skin of volunteers, UVB
  phototoxicity (chromametry): no indication of phototoxicity
Interleukin-1 (IL-1); 0.35% rambazole, during one day after 8 days of treatment
  skin reaction reported by one subject: mild itching
Interleukin-1 (IL-1); gel 0.35% or 0.07% once daily
  local skin reactions during 9 days of treatment: no itching, irritating, stinging, burning or vesiculation occurred
Interleukin-1 (IL-1); gel 0.35% or 0.07% once daily on intact skin for 9 days, healthy subjects
  IL-1 expression in skin: dose-dependently decrease
